Results taken from PMC12278645, “Design, synthesis, and antitumor activity of novel thioheterocyclic nucleoside derivatives by suppressing the c-MYC pathway” (Acta Pharmaceutica Sinica. B, 2025).
Read-outs that look alike come from different tables or passages of the source.

How the values were obtained:
[1] = Metabolites in mice (LC-QTOF/MS); type: in vivo, BALB/c mice; conditions: 55 mg/kg, mixed plasma 0-24 h
Protocol: SPF BALB/c mice were adaptively fed for one week. In the control group, mice received an intravenous injection of an equal volume of solvent. In the Model group, mice received an intravenous injection of 55 mg/kg of 33a. Following administration at time points of 0, 0.25, 0.5, 1, 2, 4, 8, 12, and 24 h, mixed plasma samples were collected from mice in each group. Subsequently, blood metabolites were detected, identified, and analyzed utilizing LC-QTOF/MS technology.
The ionization mode is Electrospray Ionization in positive mode (ESI+), with an ion source voltage of 5 kV and a temperature set at 550 °C. The collision energy (CE) is 30 eV. The nebulizing gas, gas1 (nebulizer gas), and gas2 (auxiliary gas) are all nitrogen (N2) with their pressures set to 55 psi. The curtain gas (CUR) pressure is 35 psi. The parent ion scan range for the first-order mass spectrum is m/z […] to 1000, and the daughter ion scan range is m/z 50 to 1000. Dynamic Background Subtraction (DBS) is activated. The software used for data acquisition is Analyst® TF 1.8 software.

Acute toxicity assay = type: in vivo; conditions: for Death rate: 10 mice; for Number of dead mice: of 5
Protocol: SPF BALB/c mice were divided into […] randomly (n = 10, 5 male, and 5 female) and injected intraperitoneally with defined dosages of compound 33a (90, 260, 350, 450, 600, and 800 mg/kg) or dilute (DMSO: castor oil: PBS = 1:2:7, v/v/v). The mice were observed continuously for 14 days after administration. The number of mortalities during the experiment was recorded, and the statistical result of the experimental endpoint was used to calculate LD50.

[2] = Tissue distribution (LC-MS/MS); type: in vivo, BALB/c mice; conditions: for concentration at 4 h: BALB/c, mouse, intraperitoneal, 55 mg/kg intraperitoneally, after 4 h

With `CCOC(=O)[C@]1(n2cnc3c(N4CCCCC4)nc(F)nc32)CSC[C@H]1O` (racemic) [33a] the “metabolic pathways” value [1] was “hydrolysis of carboxylic acid ester and glucuronidation”, the Death rate (Acute toxicity assay; 90 mg/kg i.p.) was 0% and the “Number of dead mice” value (Acute toxicity assay; 90 mg/kg, ♀) was 0. For the same molecule, the “Number of dead mice” value (Acute toxicity assay; 90 mg/kg, ♂) was 0, the Death rate (Acute toxicity assay; 260 mg/kg i.p.) was 0% and the “Number of dead mice” value (Acute toxicity assay; 260 mg/kg, ♀) was 0. The “Number of dead mice” value (Acute toxicity assay; 260 mg/kg, ♂) was 0, the Death rate (Acute toxicity assay; 350 mg/kg i.p.) was 10% and the “Number of dead mice” value (Acute toxicity assay; 350 mg/kg, ♀) was 1. The “Number of dead mice” value (Acute toxicity assay; 350 mg/kg, ♂) was 0, the Death rate (Acute toxicity assay; 450 mg/kg i.p.) was 20% and the “Number of dead mice” value (Acute toxicity assay; 450 mg/kg, ♀) was 2. For the same molecule, the “Number of dead mice” value (Acute toxicity assay; 450 mg/kg, ♂) was 0, the Death rate (Acute toxicity assay; 600 mg/kg i.p.) was 60% and the “Number of dead mice” value (Acute toxicity assay; 600 mg/kg, ♀) was 3. The “Number of dead mice” value (Acute toxicity assay; 600 mg/kg, ♂) was 3, the Death rate (Acute toxicity assay; 800 mg/kg i.p.) was 100% and the “Number of dead mice” value (Acute toxicity assay; 800 mg/kg, ♀) was 5. For the same molecule, the “Number of dead mice” value (Acute toxicity assay; 800 mg/kg, ♂) was 5, the LD50 at 14 days (Acute toxicity assay; both sexes, mouse, in vivo, ip, BALB/c mice, intraperitoneal, observed 14 days) was 553 mg/kg and the “blood-brain barrier passage” value ([2]; 55 mg/kg, 4 h) was “can readily cross the blood‒brain barrier”. It also gave a concentration at 4 h ([2]; brain, read-out: concentration in brain) of 87900 ± 21500 ng/g, a concentration at 4 h ([2]; heart, read-out: concentration in heart) of 16900 ± 2990 ng/g and a concentration at 4 h ([2]; kidney, read-out: concentration in kidney) of 70400 ± 5140 ng/g. For the same molecule, the concentration at 4 h ([2]; liver, read-out: concentration in liver) was 12500 ± 2130 ng/g, the concentration at 4 h ([2]; lung, read-out: concentration in lung) was 38500 ± 4430 ng/g and the concentration at 4 h ([2]; spleen, read-out: concentration in spleen) was 5490 ± 2450 ng/g.
